We go through one compound from BindingDB's records for PubMed 36240545 (n/a, 2022).

The IC50 is the concentration needed to halve the response being measured. Lower therefore signals inhibition by little substance.

The target in the experiment is T1, X-box-binding protein 1 (Homo sapiens, UniProt P17861).
T1 sequence (P17861 whole entry): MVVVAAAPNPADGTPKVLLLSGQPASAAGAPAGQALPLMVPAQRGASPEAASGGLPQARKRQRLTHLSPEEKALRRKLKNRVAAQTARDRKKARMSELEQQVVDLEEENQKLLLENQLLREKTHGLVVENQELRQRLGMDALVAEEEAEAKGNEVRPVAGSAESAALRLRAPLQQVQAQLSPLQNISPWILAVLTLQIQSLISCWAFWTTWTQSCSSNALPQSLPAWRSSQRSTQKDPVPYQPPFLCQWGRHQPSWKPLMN
As to the kind of experiment: Inhibition of thapsigargin-induced XBP1-luciferase activation in human HeLa cells incubated for 24 hrs by luciferase assay.

On to `CO[C@H]1/C=C/C=C/C=C/C[C@H](OC(=O)[C@@H](C)NC(=O)C2CCCCC2)[C@H](C)[C@@H](O)/C(C)=C\CCC2=C(SC)C(=O)C=C(NC(=O)C1)C2=O`, for which the IC50 was 67 µM.
